Drawing on ChEMBL document CHEMBL5653615 (J Biol Chem, 2013), this text covers inhibition for 2 molecules.

SMILES strings stand for the structures.

The target in assay [1] is SRSF protein kinase 3 (Homo sapiens) (UniProt Q9UPE1). Nature of the assay: Inhibition of human STK23 at 18.6 nM by HotSpot assay relative to control.
Assay [2] concerns the target Proto-oncogene tyrosine-protein kinase receptor Ret (Homo sapiens) (UniProt P07949). Nature of the assay: Inhibition of human RET at 18.6 nM by HotSpot assay relative to control.
For assay [3], the target named is Ephrin type-A receptor 4 (Homo sapiens) (UniProt P54764). Nature of the assay: Inhibition of human EPHA4 at 18.6 nM by HotSpot assay relative to control.
Sequence of Ephrin type-A receptor 4 (Homo sapiens) (P54764 whole entry): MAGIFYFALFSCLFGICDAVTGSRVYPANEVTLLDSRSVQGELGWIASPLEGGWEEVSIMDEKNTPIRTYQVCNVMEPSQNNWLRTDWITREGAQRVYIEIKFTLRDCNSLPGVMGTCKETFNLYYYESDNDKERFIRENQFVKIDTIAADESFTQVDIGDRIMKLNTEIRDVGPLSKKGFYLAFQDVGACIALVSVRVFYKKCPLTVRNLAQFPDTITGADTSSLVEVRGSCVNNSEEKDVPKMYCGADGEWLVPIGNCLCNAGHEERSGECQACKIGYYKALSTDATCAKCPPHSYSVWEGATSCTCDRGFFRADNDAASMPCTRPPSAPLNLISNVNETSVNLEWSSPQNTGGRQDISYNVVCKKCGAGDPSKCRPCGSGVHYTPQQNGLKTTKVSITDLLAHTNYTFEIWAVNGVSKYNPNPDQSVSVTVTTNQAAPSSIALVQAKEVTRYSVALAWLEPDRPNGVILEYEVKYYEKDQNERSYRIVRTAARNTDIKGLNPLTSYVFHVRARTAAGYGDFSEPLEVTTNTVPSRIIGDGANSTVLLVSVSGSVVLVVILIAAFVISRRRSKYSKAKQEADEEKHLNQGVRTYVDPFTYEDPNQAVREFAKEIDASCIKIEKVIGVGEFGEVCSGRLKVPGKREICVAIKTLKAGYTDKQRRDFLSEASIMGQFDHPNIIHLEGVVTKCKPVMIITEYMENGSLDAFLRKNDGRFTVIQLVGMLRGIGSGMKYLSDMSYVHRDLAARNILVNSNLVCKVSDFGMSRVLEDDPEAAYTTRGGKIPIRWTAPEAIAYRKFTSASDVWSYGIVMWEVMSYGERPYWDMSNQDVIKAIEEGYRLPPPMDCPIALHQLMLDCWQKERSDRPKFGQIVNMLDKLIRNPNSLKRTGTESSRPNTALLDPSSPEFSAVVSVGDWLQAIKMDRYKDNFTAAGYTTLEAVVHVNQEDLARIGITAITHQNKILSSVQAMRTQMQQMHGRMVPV
In assay [4] the target is T1, Serine/threonine-protein kinase haspin (Homo sapiens) (UniProt Q8TF76).
T1 sequence (whole entry): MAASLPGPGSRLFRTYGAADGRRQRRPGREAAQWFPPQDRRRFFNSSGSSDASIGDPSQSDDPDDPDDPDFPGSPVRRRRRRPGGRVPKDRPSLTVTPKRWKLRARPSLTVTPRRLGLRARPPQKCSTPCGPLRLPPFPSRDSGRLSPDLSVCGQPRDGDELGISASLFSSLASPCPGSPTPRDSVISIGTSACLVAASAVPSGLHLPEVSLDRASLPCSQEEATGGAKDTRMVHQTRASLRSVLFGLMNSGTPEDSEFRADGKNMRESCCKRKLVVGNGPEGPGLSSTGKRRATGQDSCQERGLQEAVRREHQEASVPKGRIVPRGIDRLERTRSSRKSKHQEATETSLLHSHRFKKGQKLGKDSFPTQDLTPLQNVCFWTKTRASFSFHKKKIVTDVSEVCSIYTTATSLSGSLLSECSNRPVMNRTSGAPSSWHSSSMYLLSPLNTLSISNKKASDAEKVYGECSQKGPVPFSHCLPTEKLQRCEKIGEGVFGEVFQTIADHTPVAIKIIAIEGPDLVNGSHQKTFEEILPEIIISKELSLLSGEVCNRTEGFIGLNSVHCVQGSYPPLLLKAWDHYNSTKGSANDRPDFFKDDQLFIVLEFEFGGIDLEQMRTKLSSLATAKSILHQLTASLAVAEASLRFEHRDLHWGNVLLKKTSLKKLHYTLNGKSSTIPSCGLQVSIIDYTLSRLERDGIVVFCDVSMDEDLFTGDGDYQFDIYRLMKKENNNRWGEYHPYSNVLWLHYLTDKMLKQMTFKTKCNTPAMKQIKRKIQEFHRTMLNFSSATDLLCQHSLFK
The assay is described as follows: Inhibition of human Haspin at 18.6 nM by HotSpot assay relative to control.

For assay [5], the target named is T2, Tyrosine-protein kinase ITK/TSK (Homo sapiens) (UniProt Q08881).
T2 sequence (whole entry): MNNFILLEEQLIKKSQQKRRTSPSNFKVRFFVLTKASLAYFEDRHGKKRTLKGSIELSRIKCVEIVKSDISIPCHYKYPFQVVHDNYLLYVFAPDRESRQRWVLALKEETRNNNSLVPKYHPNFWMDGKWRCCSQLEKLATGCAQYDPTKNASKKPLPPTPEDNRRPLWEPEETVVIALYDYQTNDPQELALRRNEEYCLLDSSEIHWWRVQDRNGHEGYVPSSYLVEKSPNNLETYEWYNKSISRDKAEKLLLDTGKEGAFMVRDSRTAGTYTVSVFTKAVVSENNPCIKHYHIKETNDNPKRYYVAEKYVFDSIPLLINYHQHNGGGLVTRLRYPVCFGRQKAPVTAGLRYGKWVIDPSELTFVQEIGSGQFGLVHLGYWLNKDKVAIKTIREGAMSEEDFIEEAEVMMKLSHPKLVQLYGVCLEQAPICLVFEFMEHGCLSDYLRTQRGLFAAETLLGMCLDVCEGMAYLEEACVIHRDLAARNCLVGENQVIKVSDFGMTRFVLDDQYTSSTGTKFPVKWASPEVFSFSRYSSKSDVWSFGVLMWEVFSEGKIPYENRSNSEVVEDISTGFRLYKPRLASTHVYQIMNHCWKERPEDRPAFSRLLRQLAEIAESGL
The assay is described as follows: Inhibition of human ITK at 18.6 nM by HotSpot assay relative to control.

Assay [6] has as its target T3, Serine/threonine-protein kinase Nek9 (Homo sapiens) (UniProt Q8TD19).
T3 sequence (whole entry): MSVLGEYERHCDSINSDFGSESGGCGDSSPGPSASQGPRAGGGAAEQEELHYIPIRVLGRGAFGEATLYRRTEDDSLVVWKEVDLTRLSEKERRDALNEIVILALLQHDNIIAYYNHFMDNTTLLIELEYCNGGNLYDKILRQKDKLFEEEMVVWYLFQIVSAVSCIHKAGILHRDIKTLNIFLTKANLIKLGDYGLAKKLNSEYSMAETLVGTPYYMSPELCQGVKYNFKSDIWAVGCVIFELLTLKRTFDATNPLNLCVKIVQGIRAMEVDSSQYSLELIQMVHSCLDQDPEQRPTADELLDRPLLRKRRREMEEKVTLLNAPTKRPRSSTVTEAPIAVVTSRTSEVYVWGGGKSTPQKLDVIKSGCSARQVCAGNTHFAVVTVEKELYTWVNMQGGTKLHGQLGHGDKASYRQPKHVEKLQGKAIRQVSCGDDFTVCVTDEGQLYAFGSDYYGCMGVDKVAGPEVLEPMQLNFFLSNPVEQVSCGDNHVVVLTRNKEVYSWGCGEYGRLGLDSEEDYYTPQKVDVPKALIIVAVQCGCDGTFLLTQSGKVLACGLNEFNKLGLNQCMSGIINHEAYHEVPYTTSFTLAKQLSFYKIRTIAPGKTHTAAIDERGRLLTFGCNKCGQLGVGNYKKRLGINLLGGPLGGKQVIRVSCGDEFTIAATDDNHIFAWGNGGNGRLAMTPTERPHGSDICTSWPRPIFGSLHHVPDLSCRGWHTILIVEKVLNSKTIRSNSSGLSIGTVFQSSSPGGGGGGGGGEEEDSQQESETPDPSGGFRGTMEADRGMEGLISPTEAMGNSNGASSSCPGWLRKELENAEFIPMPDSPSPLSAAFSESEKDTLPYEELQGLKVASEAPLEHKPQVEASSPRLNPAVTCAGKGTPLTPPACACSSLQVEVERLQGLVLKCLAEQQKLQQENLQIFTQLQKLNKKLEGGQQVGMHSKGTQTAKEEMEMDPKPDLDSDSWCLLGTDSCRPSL
The assay is described as follows: Inhibition of human NEK9 at 18.6 nM by HotSpot assay relative to control.

Assay [7] deals with RAF proto-oncogene serine/threonine-protein kinase (Homo sapiens) (UniProt P04049). The assay is described as follows: Inhibition of human RAF1 at 1.82 nM by HotSpot assay relative to control.
Sequence of RAF proto-oncogene serine/threonine-protein kinase (Homo sapiens) (P04049 whole entry): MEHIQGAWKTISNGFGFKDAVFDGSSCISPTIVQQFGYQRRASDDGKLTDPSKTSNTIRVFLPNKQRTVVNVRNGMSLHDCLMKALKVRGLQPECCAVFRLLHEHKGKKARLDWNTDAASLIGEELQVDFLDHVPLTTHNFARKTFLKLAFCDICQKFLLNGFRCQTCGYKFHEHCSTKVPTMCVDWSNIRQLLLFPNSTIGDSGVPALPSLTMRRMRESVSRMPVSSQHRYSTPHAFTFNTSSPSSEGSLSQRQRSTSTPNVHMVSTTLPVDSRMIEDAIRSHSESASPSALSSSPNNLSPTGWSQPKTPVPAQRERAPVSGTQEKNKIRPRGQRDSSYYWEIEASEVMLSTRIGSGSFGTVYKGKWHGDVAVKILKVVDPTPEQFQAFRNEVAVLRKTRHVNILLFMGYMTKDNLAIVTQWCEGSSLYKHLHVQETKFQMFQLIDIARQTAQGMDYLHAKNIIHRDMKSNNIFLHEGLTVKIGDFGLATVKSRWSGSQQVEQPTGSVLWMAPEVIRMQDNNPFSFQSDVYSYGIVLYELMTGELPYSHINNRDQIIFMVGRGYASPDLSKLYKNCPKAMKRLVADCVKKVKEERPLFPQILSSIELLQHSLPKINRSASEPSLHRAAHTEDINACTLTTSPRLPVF
Assay [8] deals with Serine/threonine-protein kinase PLK3 (Homo sapiens) (UniProt Q9H4B4). Nature of the assay: Inhibition of human PLK3 at 1.82 nM by HotSpot assay relative to control.
Sequence of Serine/threonine-protein kinase PLK3 (Homo sapiens) (Q9H4B4 whole entry, looked up): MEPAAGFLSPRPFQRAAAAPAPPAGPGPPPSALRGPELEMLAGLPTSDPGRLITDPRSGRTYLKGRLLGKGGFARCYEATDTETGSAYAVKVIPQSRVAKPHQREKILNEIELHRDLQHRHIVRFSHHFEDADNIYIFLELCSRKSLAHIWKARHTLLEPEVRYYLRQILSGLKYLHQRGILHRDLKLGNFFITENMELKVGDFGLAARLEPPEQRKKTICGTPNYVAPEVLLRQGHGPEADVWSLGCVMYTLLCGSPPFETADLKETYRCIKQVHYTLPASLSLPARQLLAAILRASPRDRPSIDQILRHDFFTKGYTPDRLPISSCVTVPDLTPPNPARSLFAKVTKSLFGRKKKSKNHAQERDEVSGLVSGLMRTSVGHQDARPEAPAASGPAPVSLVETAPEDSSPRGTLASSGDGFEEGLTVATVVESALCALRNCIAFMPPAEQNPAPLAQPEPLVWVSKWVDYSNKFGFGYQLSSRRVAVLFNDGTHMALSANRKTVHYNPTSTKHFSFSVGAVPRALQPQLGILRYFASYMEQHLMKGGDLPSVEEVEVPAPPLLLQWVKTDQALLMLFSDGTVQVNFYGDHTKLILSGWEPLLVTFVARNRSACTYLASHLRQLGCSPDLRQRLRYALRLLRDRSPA
Assay [9] has as its target Calcium/calmodulin-dependent protein kinase kinase 2 (Homo sapiens) (UniProt Q96RR4). Nature of the assay: Inhibition of human CAMKK2 at 1.82 nM by HotSpot assay relative to control.

Sequence of SRSF protein kinase 3 (Homo sapiens) (Q9UPE1 whole entry): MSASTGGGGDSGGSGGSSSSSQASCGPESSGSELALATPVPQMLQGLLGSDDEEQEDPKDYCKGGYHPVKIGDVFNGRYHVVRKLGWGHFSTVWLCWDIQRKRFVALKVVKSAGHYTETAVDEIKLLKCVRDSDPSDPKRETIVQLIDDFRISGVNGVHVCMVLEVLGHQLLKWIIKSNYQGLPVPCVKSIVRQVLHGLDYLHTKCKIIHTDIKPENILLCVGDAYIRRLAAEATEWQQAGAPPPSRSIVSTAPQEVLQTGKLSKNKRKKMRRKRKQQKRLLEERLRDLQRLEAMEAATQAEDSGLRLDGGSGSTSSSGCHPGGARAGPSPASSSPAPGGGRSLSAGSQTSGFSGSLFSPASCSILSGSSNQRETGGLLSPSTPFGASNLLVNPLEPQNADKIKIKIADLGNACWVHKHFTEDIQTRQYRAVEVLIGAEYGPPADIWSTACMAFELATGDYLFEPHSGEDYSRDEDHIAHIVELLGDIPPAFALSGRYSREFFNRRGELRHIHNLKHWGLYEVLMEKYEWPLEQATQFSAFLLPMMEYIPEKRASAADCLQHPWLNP
Sequence of Proto-oncogene tyrosine-protein kinase receptor Ret (Homo sapiens) (P07949 whole entry): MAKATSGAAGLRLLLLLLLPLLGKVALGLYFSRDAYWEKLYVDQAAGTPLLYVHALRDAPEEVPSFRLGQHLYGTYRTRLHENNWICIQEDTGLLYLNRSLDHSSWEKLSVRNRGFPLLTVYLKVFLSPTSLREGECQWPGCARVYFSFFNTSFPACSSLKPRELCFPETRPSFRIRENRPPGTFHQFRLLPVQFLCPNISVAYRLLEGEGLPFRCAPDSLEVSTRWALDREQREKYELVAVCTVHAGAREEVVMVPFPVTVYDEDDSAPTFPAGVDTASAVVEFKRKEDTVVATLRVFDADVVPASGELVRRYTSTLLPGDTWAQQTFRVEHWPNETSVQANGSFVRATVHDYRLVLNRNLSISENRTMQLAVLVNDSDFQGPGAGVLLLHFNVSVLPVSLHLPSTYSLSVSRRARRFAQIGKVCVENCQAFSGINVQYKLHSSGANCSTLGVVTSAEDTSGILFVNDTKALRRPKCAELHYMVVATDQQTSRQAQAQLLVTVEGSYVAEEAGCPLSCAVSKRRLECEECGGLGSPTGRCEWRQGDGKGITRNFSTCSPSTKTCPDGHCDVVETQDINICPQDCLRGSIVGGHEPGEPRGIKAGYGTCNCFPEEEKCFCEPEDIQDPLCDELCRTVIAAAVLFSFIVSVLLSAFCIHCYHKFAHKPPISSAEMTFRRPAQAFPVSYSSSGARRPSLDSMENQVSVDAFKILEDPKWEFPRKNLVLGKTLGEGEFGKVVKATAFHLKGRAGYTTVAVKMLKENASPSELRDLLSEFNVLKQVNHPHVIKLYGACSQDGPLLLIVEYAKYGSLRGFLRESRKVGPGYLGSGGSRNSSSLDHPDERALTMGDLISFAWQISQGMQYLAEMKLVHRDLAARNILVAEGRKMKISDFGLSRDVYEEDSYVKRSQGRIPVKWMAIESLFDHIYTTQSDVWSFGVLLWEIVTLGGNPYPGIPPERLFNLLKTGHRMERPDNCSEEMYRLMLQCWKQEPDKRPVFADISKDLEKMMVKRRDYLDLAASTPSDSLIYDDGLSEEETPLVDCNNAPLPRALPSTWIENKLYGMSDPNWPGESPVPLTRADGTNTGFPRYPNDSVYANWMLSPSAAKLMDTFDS
Sequence of Calcium/calmodulin-dependent protein kinase kinase 2 (Homo sapiens) (Q96RR4 2-588 limits assumed): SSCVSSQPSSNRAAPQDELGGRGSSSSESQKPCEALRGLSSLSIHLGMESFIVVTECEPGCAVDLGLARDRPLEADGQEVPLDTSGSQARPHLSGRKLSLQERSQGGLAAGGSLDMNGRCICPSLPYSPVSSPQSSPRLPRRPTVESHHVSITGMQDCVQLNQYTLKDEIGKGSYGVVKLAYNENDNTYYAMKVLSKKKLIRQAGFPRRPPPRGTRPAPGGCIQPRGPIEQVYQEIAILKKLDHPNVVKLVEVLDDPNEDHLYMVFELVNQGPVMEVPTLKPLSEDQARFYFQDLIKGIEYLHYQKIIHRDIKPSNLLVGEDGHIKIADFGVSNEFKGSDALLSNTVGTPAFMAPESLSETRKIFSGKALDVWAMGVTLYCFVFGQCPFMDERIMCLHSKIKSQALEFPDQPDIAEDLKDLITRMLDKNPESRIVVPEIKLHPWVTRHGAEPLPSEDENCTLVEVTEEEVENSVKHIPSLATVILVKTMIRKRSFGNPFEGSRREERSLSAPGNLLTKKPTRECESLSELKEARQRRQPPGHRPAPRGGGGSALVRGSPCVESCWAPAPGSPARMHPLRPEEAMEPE

`C[C@]1(O)C[C@@H](c2nc(-c3ccc4ccc(-c5ccccc5)nc4c3)c3c(N)nccn32)C1`: the inhibition (in general, the drop in the measured response relative to a control, in per cent) in assay [1] was -2.07%; in [2], 15.8%; in [3], -8.39%; in assay [4], -1.76%; in assay [5], -7.85%; in assay [6] it was -6.26%.
On to `C[C@@]1(C(=O)Nc2ccc(F)nc2)CCCN1c1nc(Nc2cc(C3CC3)n[nH]2)c2cccn2n1`, for which the inhibition in assay [7] was -9.08%; in assay [8], 2.72%; in [9] it was 26.5%.
